According to ChEMBL document CHEMBL1124661, “Synthesis of 8-substituted derivatives of the 2-deoxy analogue of 3-deoxy-beta-D-manno-2-octulopyranosonic acid (2-deoxy-beta-KDO) as inhibitors of 3-deoxy-D-manno-octulosonate cytidylyltransferase” (J Med Chem, 1989):

Key:
[1] = Activity against CMP-KDO synthetase-KDO-lipid A transferase (CKS-KLT) assay from Escherichia coli D21
[2] = Activity against CMP-KDO synthetase (CKS) from Escherichia coli D21
[3] = Activity against CMP-KDO synthetase (CKS) from Escherichia coli D21,the compound gave rise to a strongly interfering absorption in the thiobarbituric acid assay
[4] = Activity against CMP-KDO synthetase (CKS) from Escherichia coli D21, the compound gave rise to a strongly interfering absorption in the thiobarbituric acid assay

Row | IC50 [1] [µM] | IC50 [2] [µM] | IC50 [3] | IC50 [4] | Structure (SMILES)
1 | 10 | 18 |  |  | O=C(O)[C@@H]1C[C@@H](O)[C@@H](O)[C@@H]([C@H](O)CO)O1
2 | 7.4 |  | Strongly interfering absorption |  | NC[C@@H](O)[C@H]1O[C@H](C(=O)O)C[C@@H](O)[C@H]1O
3 | 6.8 | 22 |  |  | C[C@@H](O)[C@H]1O[C@H](C(=O)O)C[C@@H](O)[C@H]1O
4 | 4.8 | 24 |  |  | O=C(O)[C@@H]1C[C@@H](O)[C@@H](O)[C@@H]([C@H](O)CF)O1
5 | 17 |  | Strongly interfering absorption |  | N.O=C(O)[C@@H]1C[C@@H](O)[C@@H](O)[C@@H]([C@H](O)CS)O1
6 | 80 |  |  | Strongly interfering absorption | N.[N-]=[N+]=NC[C@@H](O)[C@H]1O[C@H](C(=O)O)C[C@@H](O)[C@H]1O
